Results on three molecules are retold here after publication PMC10914731, “Homo-BacPROTAC-induced degradation of ClpC1 as a strategy against drug-resistant mycobacteria” (Nature Communications, 2024).

In brackets after ≈: the same amount, converted by molar mass. Several values for one entry are separate records, joined by “and”; a condition that tells them apart may be missing. Equal values may be shown once. Read-outs that look alike come from different tables or passages of the source. A value given as a limit tells only on which side of the number the result lay.

The format of series [1] is in vitro ADME, Human.
The format of series [2] is in vitro ADME, Mice. An outline of the steps:
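Compound (1 µmol/l) was incubated at 37 °C with 0.5 mg/ml liver microsomes in 100 mM Tris-HCl pH 7.5, 6.5 mM MgCl2 and 1 mM NADPH. Reactions were quenched with acetonitrile at several time points and parent remaining quantified by HPLC-MS/MS; first-order half-lives were converted to clearance as %Qh via the well-stirred model.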

In series [3] the test system is non-replicating cells of Mtb H37Rv. The class given is cell-based, Mycobacterium tuberculosis. To be noted: for Supplementary Figure 2 dose-response value, starvation-induced non-replicating H37Rv cells: three replicate columns.
The test system of the next series is Mtb ATCC 35825. Put plainly: microbe, parasite or virus in culture. The class given is cell-based.
In a further series the test system is Klebsiella pneumoniae. Description: MIC ESKAPES panel, Klebsiella pneumoniae. In kind it is cell-based. The method, then:
Minimum inhibitory concentration (MIC) against ESKAPES panel of Gram positive and Gram negative pathogens (Enterococcus faecium, Staphylococcus aureus, Klebsiella pneumoniae, Acinetobacter baumannii, Pseudomonas aeruginosa, Enterobacter cloacae and Salmonella typhimurium [ESKAPES panel]) were determined at the FNDR by the standard broth dilution method [CLSI, M100]. […] Mueller Hinton broth (MHB) medium was used to grow ESKAPES panel strains. The individual cultures were added as 200 μL (inoculum of 3–7 × 10^5 cfu/ml) to the respective assay plates in each well to all columns, except the media control (200 μL of medium). […] The assay plates were incubated at 37 °C, and the results were noted on the 2nd day as turbidometric readout. The clear wells indicated inhibition of growth, while the turbid wells indicated uninhibited growth.

Series [4] concerns the target ClpC1-NTD substrate, M. tuberculosis ClpC1P1P2 (Mycobacterium tuberculosis, UniProt P9WPC9). Put plainly: biochemical. In kind it is biochemical. To be noted: for DC50: read-out: DC50, Mean.
In series [5] the target is endogenous ClpC1 in Msm #607 cells (Mycolicibacterium smegmatis, UniProt A0R574). The class given is cell-based, M. smegmatis.
In a further series the test system is Mycobacterium fortuitum. Description: microbe, parasite or virus in culture. In kind it is cell-based.
Setting [6] is: Mycobacterium tuberculosis, ATCC35825, mean, n = 2 well replicates.
The mark [7] stands for this setting: Mycobacterium tuberculosis, ATCC35825, single well replicates.
The mark [8] stands for this setting: single well replicates, listed as 12 (UdSBI-4377).
[9] abbreviates: Klebsiella pneumoniae, Gram negative, n = 3 well replicates.
Setting [10] is: Klebsiella pneumoniae, Gram-Negative Bacteria, replicates 1-3.
Setting [11] is: Experiment 2, three replicate columns.
The mark [12] stands for this setting: Experiment 2, three replicate columns, read-out: MIC (µM) Mycobacterium fortuitum.
[13] abbreviates: Mycolicibacterium fortuitum, Experiment 1, read-out: MIC Mycobacterium fortuitum.
[14] abbreviates: Mycolicibacterium fortuitum, Experiment 2, three replicate columns, read-out: MIC (µM) Mycobacterium fortuitum.
Where [15] appears, read: Mycolicibacterium fortuitum, Experiment 2, three replicate columns, read-out: MIC (µg/ml) Mycobacterium fortuitum.
Setting [16] is: Mycolicibacterium fortuitum, mean ± SD, read-out: MIC Mycobacterium fortuitum.

On to `COC(c1ccccc1)C1NC(=O)C(C)NC(=O)C(CC(C)CO)N(C)C(=O)C(Cc2cn(C)c3ccccc23)NC(=O)C(Cc2cn(CCCCCn3cc(CC4NC(=O)C(CC(C)C)N(C)C(=O)C(C(C)C)NC(=O)C(C(OC)c5ccccc5)NC(=O)C(C)NC(=O)C(CC(C)CO)N(C)C(=O)C(Cc5cn(C)c6ccccc56)NC4=O)nn3)nn2)NC(=O)C(CC(C)C)N(C)C(=O)C(C(C)C)NC1=O` (centres unmarked) [Compound 12], for which, in series [1] (human, pH 7.4), the “Hepatocyte Human” value is reported as 12 %Qh. The “Microsomal Stability Mice” value in series [2] (mouse, microsomes, pH 7.5) was below 24 %Qh. The “Microsomal Stability Mouse QH” value in series [2] (mouse, microsomes, pH 7.5) was below 24.2%. The “inhibitory activity on non-growing Mtb H37Rv” value in series [3] is “lost their inhibitory activity”. For the same molecule, the MIC is < 0.1 µM and < 0.2 µg/mL with Mtb ATCC 35825 (setting [6]); < 0.19 µg/mL and < 0.1 µM in the series on Mtb ATCC 35825 (setting [7]); below 0.1 µM against Mtb ATCC 35825 (setting [8]); above 50 µM with Klebsiella pneumoniae (Gram-Negative Bacteria, replicates 1-3, listed as 12 (UdSBI-4377)); above 50 µM in the series on Klebsiella pneumoniae (setting [9]); above 99 µg/mL in the series with Klebsiella pneumoniae (setting [10]). Further, the MIC in the series with Mycobacterium fortuitum (Experiment 1, listed as 12 (UdSBI-4377), read-out: MIC Mycobacterium fortuitum) was above 50 µM; in the series on Mycobacterium fortuitum (setting [12]), above 50 µM; with Mycobacterium fortuitum (setting [13]), above 99 µg/mL; in the series with Mycobacterium fortuitum (setting [14]) it was above 50 µM; in the series on Mycobacterium fortuitum (setting [15]) it was above 99 µg/mL; with Mycobacterium fortuitum (setting [16]), above 50 µM. In the series on Mtb ATCC 35825 (setting [8]), the “MIC Mtb ATCC 35825” value was below 0.19 µg/mL. For the same molecule, the DC50 in series [4] turned out to be 7100 nM; in series [5] (read-out: DC50, Mean) it was 170 nM; in series [5] (read-out: average DC50, endogenous ClpC1 degradation), 170 ± 100 nM. Further, the “MIC (µg/ml) Mycobacterium fortuitum” value against Mycobacterium fortuitum (setting [11]) was above 99.02 µg/mL.
Take `COc1c(N2C[C@@H]3CCCN[C@@H]3C2)c(F)cc2c(=O)c(C(=O)O)cn(C3CC3)c12` [Moxifloxacin, reference compound]: the “Supplementary Figure 2 dose-response value, starvation-induced non-replicating H37Rv cells” value in series [3] (Conc. 0.0488281 µM) was 96.0307 and 94.5408 and 97.6321; in series [3] (Conc. 0.0976562 µM), 87.2508 and 88.414 and 86.3824; in series [3] (Conc. 0.195312 µM) it was 85.0837 and 87.4102 and 85.2989; in series [3] (Conc. 0.390625 µM) it was 85.4263 and 85.2112 and 85.8964; in series [3] (Conc. 0.78125 µM), 82.9485 and 82.598 and 80.152; in series [3] (Conc. 1.5625 µM) it was 77.7618 and 79.2358 and 77.6503. For the same molecule, the “Supplementary Figure 2 dose-response value, starvation-induced non-replicating H37Rv cells” value in series [3] (Conc. 3.125 µM) was 77.3794 and 79.3075 and 79.2756; in series [3] (Conc. 6.25 µM), 72.6389 and 74.9414 and 71.1889; in series [3] (Conc. 25 µM) it was 59.9471 and 62.2337 and 59.4213; in series [3] (Conc. 50 µM), 60.21 and 62.4647 and 60.935; in series [3] (Conc. 100 µM) it was 55.7882 and 57.6844 and 55.7723. Besides, the MIC with Mtb ATCC 35825 (setting [6]) was 0.1 µM and 0.1 µg/mL; in the series on Mtb ATCC 35825 (setting [7]), 0.06 µg/mL and 0.15 µM; against Mtb ATCC 35825 (single well replicates), 0.15 µM (≈ 0.0602 µg/mL); with Klebsiella pneumoniae (setting [9]), 1.3 µM; in the series on Klebsiella pneumoniae (setting [10]), 1.25 µM and 0.5 µg/mL; with Mycobacterium fortuitum (setting [12]), 0.15 µM. The MIC in the series on Mycobacterium fortuitum (setting [13]) is 0.0747 µM and 0.03 µg/mL; in the series on Mycobacterium fortuitum (setting [14]) it was 0.15 µM; in the series on Mycobacterium fortuitum (setting [15]) it was 0.06 µg/mL; in the series with Mycobacterium fortuitum (setting [16]), 0.1 µM. In addition, the “MIC Mtb ATCC 35825” value against Mtb ATCC 35825 (single well replicates) came to 0.06 µg/mL (≈ 0.149 µM). The “MIC (µg/ml) Mycobacterium fortuitum” value in the series with Mycobacterium fortuitum (setting [11]) worked out at 0.06 µg/mL (≈ 0.149 µM).
`CO[C@H](c1ccccc1)[C@@H]1NC(=O)[C@H](C)NC(=O)[C@H](C[C@@H](C)CO)N(C)C(=O)[C@H](Cc2cn(Cc3cn(CCOCCn4cc(Cn5cc(C[C@@H]6NC(=O)[C@H](C(C)C)NC(=O)[C@H](CC(C)C)N(C)C(=O)[C@H](C(C)C)NC(=O)[C@H]([C@H](OC)c7ccccc7)NC(=O)[C@H](C)NC(=O)[C@H](C[C@@H](C)CO)N(C)C6=O)c6ccccc65)nn4)nn3)c3ccccc23)NC(=O)[C@H](C(C)C)NC(=O)[C@H](CC(C)C)N(C)C(=O)[C@H](C(C)C)NC1=O` [Compound 6]: the “Hepatocyte Human” value in series [1] (clearance in hepatocytes) amounted to 12 %Qh. The “Microsomal Stability Mouse QH” value in series [2] (Mouse) is 42.900%. Besides, the “Microsomal Stability Mice” value in series [2] (clearance in microsomes) turned out to be 43 %Qh. The “1-Dmax, single measurements” value in series [4] (Mtb, Measurement 1-4) is 67.3% and 57.3% and 45.9% and 46.4%. The 1-Dmax (percent substrate remaining at maximal degradation) in series [4] (Mtb, mean of the measurements, read-out: 1-Dmax, Mean) stood at 54%. Besides, in series [4] (Mtb, mean of the measurements), the DC50 came to 5800 nM.
